In US20250034097A1, “MICROBIOCIDAL ISONICOTINIC AMIDE DERIVATIVES” (SYNGENTA CROP PROTECTION AG, priority 2021, published 2025):

Tests used:
Glomerella lagenarium = Glomerella lagenarium syn Colletotrichum lagenarium (anthracnose), growth inhibition in nutrient broth; assay type: cell-based; conditions: Colletotrichum orbiculare, PDB broth, 24° C., 72 hours, photometric at 620 nm, compared to untreated control
Protocol: (§1) Conidia of the fungus from cryogenic storage were directly mixed into nutrient broth (PDB potato dextrose broth). A DMSO solution of the test compounds was placed into a microtiter plate (96-well format) and the nutrient broth containing the fungal spores was added to it. The test plates were incubated at 24° C. and the inhibition of growth was determined photometrically after 72 hours at 620 nm.

Alternaria solani = Alternaria solani (early blight of tomato), tomato leaf disks, preventive; assay type: in vivo; conditions: 200 ppm, assessed 4 dpi, compared to untreated control
Protocol: Alternaria solani (Early Blight of Tomato) Tomato leaf disks are placed on water agar in multiwell plates (24-well format) and sprayed with test solutions. After drying, the leaf disks are inoculated with a spore suspension of the fungus. After appropriate incubation the activity of a compound is assessed 4 dpi (days post inoculation) as preventive fungicidal activity.

Monographella nivalis = Monographella nivalis syn. Microdochium nivale (snow mould, foot rot), growth inhibition in nutrient broth; assay type: cell-based; conditions: "at ppm" (concentration not given); PDB broth, 24° C., 72 hours, photometric at 620 nm; compared to untreated control
Protocol: as §1

Pyrenophora teres = Pyrenophora teres (net blotch of barley), barley leaf segments, preventive; assay type: in vivo; conditions: 200 ppm, assessed 4 dpi, compared to untreated control
Protocol: Barley leaf segments are placed on agar in multiwell plates (24-well format) and sprayed with test solutions. After drying, the leaf disks are inoculated with a spore suspension of the fungus. After appropriate incubation, the activity of a compound is assessed 4 dpi (days after inoculation) as preventive fungicidal activity.

Sclerotinia sclerotiorum = Sclerotinia sclerotiorum (cottony rot, white mold), growth inhibition in nutrient broth; assay type: cell-based; conditions: 20 ppm; PDB broth, 24° C., 72 hours, photometric at 620 nm; compared to untreated control
Protocol: as §1, with “Mycelial fragments” for “Conidia”, “fungus prepared” for “fungus”, “a fresh liquid culture” for “cryogenic storage”

Row | Compound | inhibition of growth at 20 ppm (Glomerella lagenarium) [%] | other results
1 | Cc1ncc(Oc2cccc(C3CC3)c2)c(C(=O)NCCc2ccc(Cl)cc2Cl)n1 [Compound 1.1, 5-(3-cyclopropylphenoxy)-N-[2-(2,4-dichlorophenyl)ethyl]-2-methyl-pyrimidine-4-carboxamide] | ≥ 80 | 
2 | Cc1ncc(Oc2cccc(C3CC3)c2)c(C(=O)NCC(F)c2ccc(Cl)cc2Cl)n1 (centres unmarked) [Compound 1.2, 5-(3-cyclopropylphenoxy)-N-[2-(2,4-dichlorophenyl)-2-fluoro-ethyl]-2-methyl-pyrimidine-4-carboxamide] | ≥ 80 | control of Alternaria solani (Alternaria solani): at least 80%; control of Monographella nivalis (Monographella nivalis): at least 80%; control of Pyrenophora teres (Pyrenophora teres): at least 80%; control of Sclerotinia sclerotiorum (Sclerotinia sclerotiorum): at least 80%
3 | Cc1nncc(Oc2cccc(C3CC3)c2)c1C(=O)NCC(F)c1ccc(Cl)cc1Cl (centres unmarked) [Compound 2.1, 5-(3-cyclopropylphenoxy)-N-[2-(2,4-dichlorophenyl)-2-fluoro-ethyl]-3-methyl-pyridazine-4-carboxamide] | ≥ 80 | 
4 | CC(C)Oc1nncc(Oc2cccc(C3CC3)c2)c1C(=O)NCC(F)c1ccc(Cl)cc1Cl (centres unmarked) [Compound 2.4, 5-(3-cyclopropylphenoxy)-N-[2-(2,4-dichlorophenyl)-2-fluoro-ethyl]-3-isopropoxy-pyridazine-4-carboxamide] | ≥ 80 | 
5 | C=C(C)COc1nncc(Oc2cccc(C3CC3)c2)c1C(=O)NCC(F)c1ccc(Cl)cc1Cl (centres unmarked) [Compound 2.5, 5-(3-cyclopropylphenoxy)-N-[2-(2,4-dichlorophenyl)-2-fluoro-ethyl]-3-(2-methylallyloxy)pyridazine-4-carboxamide] | ≥ 80 | 
6 | O=C(NCC(F)c1ccc(Cl)cc1Cl)c1c(Oc2cccc(C3CC3)c2)cnnc1C#CC1CC1 (centres unmarked) [Compound 2.6, 3-(2-cyclopropylethynyl)-5-(3-cyclopropylphenoxy)-N-[2-(2,4-dichlorophenyl)-2-fluoro-ethyl]pyridazine-4-carboxamide] | ≥ 80 | 
7 | C=C(C)c1nncc(Oc2cccc(C3CC3)c2)c1C(=O)NCC(F)c1ccc(Cl)cc1Cl (centres unmarked) [Compound 2.7, 5-(3-cyclopropylphenoxy)-N-[2-(2,4-dichlorophenyl)-2-fluoro-ethyl]-3-isopropenyl-pyridazine-4-carboxamide] | ≥ 80 | 
8 | O=C(NCC(F)c1ccc(Cl)cc1Cl)c1c(Oc2cccc(C3CC3)c2)cnnc1C1CC1 (centres unmarked) [Compound 2.8, 3-cyclopropyl-5-(3-cyclopropylphenoxy)-N-[2-(2,4-dichlorophenyl)-2-fluoro-ethyl]pyridazine-4-carboxamide] | ≥ 80 | 
9 | CC(C)c1nncc(Oc2cccc(C3CC3)c2)c1C(=O)NCC(F)c1ccc(Cl)cc1Cl (centres unmarked) [Compound 2.9, 5-(3-cyclopropylphenoxy)-N-[2-(2,4-dichlorophenyl)-2-fluoro-ethyl]-3-isopropyl-pyridazine-4-carboxamide] | ≥ 80 | 
10 | O=C(NCC(F)c1ccc(Cl)cc1Cl)c1cnncc1Oc1cccc(C2CC2)c1 (centres unmarked) [Compound 2.10, 5-(3-cyclopropylphenoxy)-N-[2-(2,4-dichlorophenyl)-2-fluoro-ethyl]pyridazine-4-carboxamide] | ≥ 80 | 
11 | COc1nncc(Oc2cccc(C3CC3)c2)c1C(=O)NCCc1ccc(Cl)cc1Cl [Compound 2.12, 5-(3-cyclopropylphenoxy)-N-[2-(2,4-dichlorophenyl)ethyl]-3-methoxy-pyridazine-4-carboxamide] | ≥ 80 | 
12 | O=C(NCC(F)c1ccc(Cl)cc1Cl)c1c(Oc2cccc(C3CC3)c2)cnnc1O (centres unmarked) [Compound 2.15, 5-(3-cyclopropylphenoxy)-N-[2-(2,4-dichlorophenyl)-2-fluoro-ethyl]-3-hydroxy-pyridazine-4-carboxamide] | ≥ 80 | 
13 | CC(C)c1nncc(Oc2cccc(C3CC3)c2)c1C(=O)NC[C@H](F)c1ccc(Cl)cc1Cl [Compound 2.16, 5-(3-cyclopropylphenoxy)-N-[(2R)-2-(2,4-dichlorophenyl)-2-fluoro-ethyl]-3-isopropyl-pyridazine-4-carboxamide] | ≥ 80 | 
